ChEMBL document CHEMBL5665443, “Enzyme Inhibitor Single Concentration assay results for EUbOPEN Chemogenomics Library” (2024)

What was measured:
[1] = target: T1, Endonuclease III-like protein 1 (Homo sapiens) (UniProt P78549); conditions: Compound Concentration 10.0 uM;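 note: enzyme assay tracking NTHL1 cutting and release of a quenched double-stranded DNA oligo substrate, read as fluorescence at 594 nm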
T1 sequence (whole entry): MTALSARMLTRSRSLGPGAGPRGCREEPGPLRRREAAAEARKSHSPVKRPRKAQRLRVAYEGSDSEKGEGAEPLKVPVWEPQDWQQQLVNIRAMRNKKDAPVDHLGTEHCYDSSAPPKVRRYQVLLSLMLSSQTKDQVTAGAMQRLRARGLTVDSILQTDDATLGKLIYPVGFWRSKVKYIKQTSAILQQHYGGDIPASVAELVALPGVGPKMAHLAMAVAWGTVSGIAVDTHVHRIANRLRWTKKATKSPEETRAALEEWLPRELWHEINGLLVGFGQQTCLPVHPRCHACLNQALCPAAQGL
Description: Inhibition of NTHL1 by quantifying inhibition of NTHL1-mediated cleavage and dissociation of quenched duplex DNA oligonucleotides, measured as fluorescence at 594 nm.

[2] = target: Methyl-CpG-binding domain protein 4 (Homo sapiens) (UniProt O95243); conditions: Compound Concentration 10.0 uM, Hit No;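 note: MBD4 activity read as fluorescence at 594 nm from cleavage and release of a quenched duplex DNA oligonucleotide, with APE1 coupled to incise the strand and raise turnover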
Description: Inhibition of MBD4 by quantifying inhibition of MBD4-mediated cleavage and dissociation of quenched duplex DNA oligonucleotides, measured as fluorescence at 594 nm. To generate a functional strand incision and increase turn-over this assay is coupled to APE1.

[3] = target: T2, Endonuclease 8-like 2 (Homo sapiens) (UniProt Q969S2); conditions: Compound Concentration 10.0 uM;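 note: fluorescence at 594 nm reports NEIL2 cutting and release of a quenched double-stranded DNA oligo substrate, reduced signal read as inhibition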
T2 sequence (whole entry): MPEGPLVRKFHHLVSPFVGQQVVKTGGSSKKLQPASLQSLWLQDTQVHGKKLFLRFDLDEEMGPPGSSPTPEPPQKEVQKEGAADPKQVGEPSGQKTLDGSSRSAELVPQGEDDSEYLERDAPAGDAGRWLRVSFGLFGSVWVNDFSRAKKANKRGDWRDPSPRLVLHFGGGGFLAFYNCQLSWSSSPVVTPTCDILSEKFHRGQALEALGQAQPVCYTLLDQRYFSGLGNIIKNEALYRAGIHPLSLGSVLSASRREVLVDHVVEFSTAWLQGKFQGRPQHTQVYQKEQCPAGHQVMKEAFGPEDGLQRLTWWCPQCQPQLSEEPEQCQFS
Description: Inhibition of NEIL2 by quantifying inhibition of NEIL2-mediated cleavage and dissociation of quenched duplex DNA oligonucleotides, measured as fluorescence at 594 nm.

[4] = target: DNA-3-methyladenine glycosylase (Homo sapiens) (UniProt P29372); conditions: Compound Concentration 10.0 uM;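 note: enzyme assay where MPG cuts a quenched duplex DNA oligonucleotide probe, paired with APE1 for strand incision and turnover, read as fluorescence at 594 nm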
Description: Inhibition of MPG by quantifying inhibition of MPG-mediated cleavage and dissociation of quenched duplex DNA oligonucleotides, measured as fluorescence at 594 nm. To generate a functional strand incision and increase turn-over this assay is coupled to APE1.

[5] = target: T3, Single-strand selective monofunctional uracil DNA glycosylase (Homo sapiens) (UniProt Q53HV7); conditions: Compound Concentration 10.0 uM;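 note: enzymatic SMUG1 assay coupled with APE1, reading fluorescence at 594 nm released when a quenched double-stranded DNA oligonucleotide substrate is cleaved and separated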
T3 sequence (whole entry): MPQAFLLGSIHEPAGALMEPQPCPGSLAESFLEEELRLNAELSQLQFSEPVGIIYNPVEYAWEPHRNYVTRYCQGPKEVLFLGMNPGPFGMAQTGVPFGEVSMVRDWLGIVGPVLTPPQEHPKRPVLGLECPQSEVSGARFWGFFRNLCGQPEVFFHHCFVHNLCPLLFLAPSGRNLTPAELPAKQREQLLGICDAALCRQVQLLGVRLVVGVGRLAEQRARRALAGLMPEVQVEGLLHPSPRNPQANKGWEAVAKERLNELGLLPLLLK
Description: Inhibition of SMUG1 by quantifying inhibition of SMUG1-mediated cleavage and dissociation of quenched duplex DNA oligonucleotides, measured as fluorescence at 594 nm. To generate a functional strand incision and increase turn-over this assay is coupled to APE1.

[6] = target: G/T mismatch-specific thymine DNA glycosylase (Homo sapiens) (UniProt Q13569); conditions: Compound Concentration 10.0 uM;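 note: human TDG cleavage of quenched duplex DNA oligonucleotides coupled to APE1, strand release read as fluorescence at 594 nm, inhibition of TDG activity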
Description: Inhibition of TDG by quantifying inhibition of TDG-mediated cleavage and dissociation of quenched duplex DNA oligonucleotides, measured as fluorescence at 594 nm. To generate a functional strand incision and increase turn-over this assay is coupled to APE1.

[7] = target: Endonuclease 8-like 1 (Homo sapiens) (UniProt Q96FI4); conditions: Compound Concentration 10.0 uM;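 note: fluorescence at 594 nm from quenched duplex DNA oligonucleotides released by NEIL1 cleavage and strand separation, reported as reduction of this enzyme activity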
Description: Inhibition of NEIL1 by quantifying inhibition of NEIL1-mediated cleavage and dissociation of quenched duplex DNA oligonucleotides, measured as fluorescence at 594 nm.

[8] = target: N-glycosylase/DNA lyase (Homo sapiens) (UniProt O15527); conditions: Compound Concentration 10.0 uM;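 note: OGG1 cleavage of a quenched duplex DNA oligonucleotide, coupled to APE1 for strand incision, read as fluorescence at 594 nm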
Description: Inhibition of OGG1 by quantifying inhibition of OGG1-mediated cleavage and dissociation of quenched duplex DNA oligonucleotides, measured as fluorescence at 594 nm. To generate a functional strand incision and increase turn-over this assay is coupled to APE1.

[9] = target: T4, Adenine DNA glycosylase (Homo sapiens) (UniProt Q9UIF7); conditions: Compound Concentration 10.0 uM, Hit No;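 note: human MUTYH activity read as 594 nm fluorescence from cleavage and release of a quenched DNA duplex, coupled with APE1 for strand incision, lower signal meaning inhibition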
T4 sequence (whole entry): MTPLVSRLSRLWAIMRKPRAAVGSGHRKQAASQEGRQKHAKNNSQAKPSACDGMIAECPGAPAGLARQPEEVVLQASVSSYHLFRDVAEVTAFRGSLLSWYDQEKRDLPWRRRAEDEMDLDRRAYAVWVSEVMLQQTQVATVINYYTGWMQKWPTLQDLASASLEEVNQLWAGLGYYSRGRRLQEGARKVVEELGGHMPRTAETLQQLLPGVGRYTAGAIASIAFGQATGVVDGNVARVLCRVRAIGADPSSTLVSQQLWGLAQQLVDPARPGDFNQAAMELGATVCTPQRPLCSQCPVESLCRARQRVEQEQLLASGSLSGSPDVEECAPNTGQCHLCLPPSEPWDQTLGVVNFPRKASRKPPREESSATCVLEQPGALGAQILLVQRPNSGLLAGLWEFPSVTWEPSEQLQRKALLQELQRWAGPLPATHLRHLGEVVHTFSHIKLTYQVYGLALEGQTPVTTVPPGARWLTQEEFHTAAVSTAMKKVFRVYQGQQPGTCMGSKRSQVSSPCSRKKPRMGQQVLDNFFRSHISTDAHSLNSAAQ
Description: Inhibition of MUTYH by quantifying inhibition of MUTYH-mediated cleavage and dissociation of quenched duplex DNA oligonucleotides, measured as fluorescence at 594 nm. To generate a functional strand incision and increase turn-over this assay is coupled to APE1.

[10] = target: Uracil-DNA glycosylase (Homo sapiens) (UniProt P13051); conditions: Compound Concentration 10.0 uM, Hit No;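 note: UNG excision on a quenched double-stranded DNA oligo probe, with APE1 added for strand incision and turnover, read as fluorescence at 594 nm as strands separate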
Sequence of Uracil-DNA glycosylase (Homo sapiens) (P13051 whole entry): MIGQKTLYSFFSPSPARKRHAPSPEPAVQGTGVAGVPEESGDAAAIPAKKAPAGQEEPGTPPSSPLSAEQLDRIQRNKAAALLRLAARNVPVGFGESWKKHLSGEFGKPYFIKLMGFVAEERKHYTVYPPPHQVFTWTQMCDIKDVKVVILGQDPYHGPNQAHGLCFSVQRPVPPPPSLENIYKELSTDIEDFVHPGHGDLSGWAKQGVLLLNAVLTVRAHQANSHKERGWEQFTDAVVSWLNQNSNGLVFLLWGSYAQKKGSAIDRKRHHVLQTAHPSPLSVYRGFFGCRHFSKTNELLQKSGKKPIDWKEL
Description: Inhibition of UNG by quantifying inhibition of UNG-mediated cleavage and dissociation of quenched duplex DNA oligonucleotides, measured as fluorescence at 594 nm. To generate a functional strand incision and increase turn-over this assay is coupled to APE1.

Sequence of N-glycosylase/DNA lyase (Homo sapiens) (O15527 whole entry): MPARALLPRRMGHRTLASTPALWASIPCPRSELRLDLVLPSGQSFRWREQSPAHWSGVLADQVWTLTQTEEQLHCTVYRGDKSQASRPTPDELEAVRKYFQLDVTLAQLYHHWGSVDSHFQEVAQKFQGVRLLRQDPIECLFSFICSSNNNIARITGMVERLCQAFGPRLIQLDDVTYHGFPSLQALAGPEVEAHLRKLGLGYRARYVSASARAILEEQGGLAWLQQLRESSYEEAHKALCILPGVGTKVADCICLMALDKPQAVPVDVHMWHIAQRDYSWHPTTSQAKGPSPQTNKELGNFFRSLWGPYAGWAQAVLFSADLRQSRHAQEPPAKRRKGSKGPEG
Sequence of DNA-3-methyladenine glycosylase (Homo sapiens) (P29372 whole entry): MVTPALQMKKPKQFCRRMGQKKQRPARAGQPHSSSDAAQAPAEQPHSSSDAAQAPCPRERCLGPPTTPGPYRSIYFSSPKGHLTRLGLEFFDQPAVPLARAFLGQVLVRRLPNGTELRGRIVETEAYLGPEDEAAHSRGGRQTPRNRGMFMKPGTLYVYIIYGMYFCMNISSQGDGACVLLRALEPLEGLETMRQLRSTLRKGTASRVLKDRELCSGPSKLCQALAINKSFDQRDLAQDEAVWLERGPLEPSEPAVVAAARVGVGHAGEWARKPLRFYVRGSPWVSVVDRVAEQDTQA
Sequence of Endonuclease 8-like 1 (Homo sapiens) (Q96FI4 whole entry): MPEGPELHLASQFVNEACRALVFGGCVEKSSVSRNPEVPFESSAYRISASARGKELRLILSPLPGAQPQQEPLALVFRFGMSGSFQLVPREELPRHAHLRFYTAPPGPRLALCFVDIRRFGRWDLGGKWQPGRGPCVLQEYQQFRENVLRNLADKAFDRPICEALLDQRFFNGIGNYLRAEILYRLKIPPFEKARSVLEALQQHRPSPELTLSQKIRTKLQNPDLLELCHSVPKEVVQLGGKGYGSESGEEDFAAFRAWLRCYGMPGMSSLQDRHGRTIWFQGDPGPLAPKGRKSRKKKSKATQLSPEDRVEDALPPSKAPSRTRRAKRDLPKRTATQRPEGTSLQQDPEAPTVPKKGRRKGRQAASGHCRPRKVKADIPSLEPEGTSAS
Sequence of G/T mismatch-specific thymine DNA glycosylase (Homo sapiens) (Q13569 whole entry): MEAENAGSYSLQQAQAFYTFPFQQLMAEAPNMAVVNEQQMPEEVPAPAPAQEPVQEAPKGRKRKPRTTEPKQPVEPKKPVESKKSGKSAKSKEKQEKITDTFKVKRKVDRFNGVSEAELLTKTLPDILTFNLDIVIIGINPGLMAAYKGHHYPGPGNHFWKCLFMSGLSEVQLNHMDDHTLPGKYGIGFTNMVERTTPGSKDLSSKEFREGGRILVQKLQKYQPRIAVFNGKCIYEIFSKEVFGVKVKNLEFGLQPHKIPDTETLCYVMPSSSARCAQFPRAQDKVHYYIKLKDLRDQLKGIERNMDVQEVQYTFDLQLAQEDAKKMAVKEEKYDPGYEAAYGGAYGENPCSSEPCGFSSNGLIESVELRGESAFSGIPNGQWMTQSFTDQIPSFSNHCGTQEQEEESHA
Sequence of Methyl-CpG-binding domain protein 4 (Homo sapiens) (O95243 whole entry, the tested form may be a part): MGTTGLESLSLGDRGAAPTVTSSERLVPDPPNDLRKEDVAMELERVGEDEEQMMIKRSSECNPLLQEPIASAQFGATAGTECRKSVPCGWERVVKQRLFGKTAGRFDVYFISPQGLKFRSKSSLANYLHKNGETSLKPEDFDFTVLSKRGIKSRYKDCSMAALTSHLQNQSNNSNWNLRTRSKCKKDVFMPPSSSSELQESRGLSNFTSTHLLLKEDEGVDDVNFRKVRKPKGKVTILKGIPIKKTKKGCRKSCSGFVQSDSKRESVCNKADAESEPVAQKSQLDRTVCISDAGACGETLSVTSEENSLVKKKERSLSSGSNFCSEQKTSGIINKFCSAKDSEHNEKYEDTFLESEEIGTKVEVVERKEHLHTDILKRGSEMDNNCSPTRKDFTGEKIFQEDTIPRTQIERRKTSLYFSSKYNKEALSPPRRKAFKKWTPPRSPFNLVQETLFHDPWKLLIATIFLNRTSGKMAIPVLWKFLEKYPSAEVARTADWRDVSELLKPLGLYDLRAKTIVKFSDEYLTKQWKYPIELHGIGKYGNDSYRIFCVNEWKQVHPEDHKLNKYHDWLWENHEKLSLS

SMILES | inhibition ([1]; Hit No) [%] | inhibition [2] [%] | inhibition ([3]; Hit No) [%] | inhibition ([4]; Hit No) [%] | inhibition ([5]; Hit No) [%] | inhibition ([6]; Hit No) [%] | inhibition ([7]; Hit No) [%] | inhibition ([8]; Hit No) [%] | inhibition [9] [%] | inhibition [10] [%] | inhibition ([8]; Hit Yes) [%] | inhibition ([1]; Hit Yes) [%] | inhibition ([3]; Hit Yes) [%] | inhibition ([4]; Hit Yes) [%] | inhibition ([5]; Hit Yes) [%] | inhibition ([6]; Hit Yes) [%] | inhibition ([7]; Hit Yes) [%]
COc1cc(OC)cc(C(=O)NNC(=O)Nc2cccc3ccccc23)c1 | 2.66 | -8.62 | 5.26 | 3.65 | 3.6 | 11.6 | -1.69 | 3.09 | 2.2 | -7.99 | – | – | – | – | – | – | –
COc1ccc(/C=C/CCCCOc2ccc(C(=O)c3cccc(C(=O)O)c3)cc2CCC(=O)O)cc1 | 2.66 | 49.9 | 15.7 | 15.9 | 12.1 | 43.2 | -0.204 | – | 28.6 | -7.57 | 42.4 | – | – | – | – | – | –
COc1cc(NC(=O)CCN2CCC(OC(=O)Nc3ccccc3-c3ccccc3)CC2)c(Cl)cc1CNC[C@H](O)c1ccc(O)c2[nH]c(=O)ccc12 | 9.99 | -6.36 | -2.98 | 7.51 | 0.984 | 16.7 | -7.76 | -7.57 | 11.4 | -5.99 | – | – | – | – | – | – | –
CN1CCN(c2ccc(Nc3c4ccccc4nc4ccccc34)cc2)CC1 | – | 88.7 | – | – | – | – | – | – | 113 | 12.9 | 84.8 | 84.8 | 90.9 | 90.3 | 78.7 | 73 | 65.5
CC1(C)[C@H]2C[C@H](C/C=C\CCCC(=O)O)[C@@H](NC(=O)c3csc4ccc(O)cc34)[C@@H]1C2 | -3.21 | 19.3 | 3.51 | 9.36 | -7.2 | 20.1 | 13.3 | 3.96 | 14.6 | -7.99 | – | – | – | – | – | – | –
O=[N+]([O-])c1ccc2nc(COCc3nc4ccc([N+](=O)[O-])cc4[nH]3)[nH]c2c1 | 0.568 | 19.9 | 2.2 | 18.4 | 4.96 | 27.1 | 12.5 | 7 | 6.46 | 0.834 | – | – | – | – | – | – | –
Cn1c(C2(NC(=O)c3ccc4c(C5CCCC5)c(-c5ncc(Br)cn5)n(C)c4c3)CCC2)nc2ccc(/C=C/C(=O)O)cc21 | 0.685 | 69.3 | – | 107 | 25.4 | 101 | 12.4 | 60.3 | 68.7 | 13.1 | – | – | 40.3 | – | – | – | –
Cc1onc(-c2ccc(F)cc2)c1COc1ccc(C(=O)N2CCS(=O)(=O)CC2)cn1 | 12.9 | 21.2 | -7.99 | 18.2 | -9.34 | 0.685 | -9.77 | -9.75 | 32 | -0.327 | – | – | – | – | – | – | –
COc1ccccc1N1CCN(C[C@@H](C(=O)NC(C)(C)C)c2ccccc2)CC1 | 17.1 | 17.7 | -2.13 | 15.3 | 7.78 | 24.3 | 15.4 | -6.28 | -2.23 | -2.81 | – | – | – | – | – | – | –
CCCCCC(O)/C=C/[C@H]1C(=O)CC(O)C1C/C=C\CCCC(=O)O (stereo not given in full) | 12.9 | 33.6 | – | 15.9 | -9.9 | 32 | 5.49 | 8.62 | 12.9 | -3.89 | – | – | 41.2 | – | – | – | –
